From patent publication US9808470B2, “Estrogenic components for use in the treatment of neurological disorders” (UNIVERSITE DE LIEGE, priority 2012, dated 2017) come the findings set out here.

What all share (format): in vivo
Series [1] has as its system vascular endothelial growth factor (VEGF). The series is described as follows: Ex.3 neuroprotective HIE rat model: VEGF staining. As for the experimental part: (§1) The sections were heated in 10 mmol/L citrate buffer (pH 6.0) at 100° C. for 10 minutes. Endogenous peroxidase activity was blocked with 3% hydrogen peroxide for 10 minutes and after a second blocking with 5% normal goat serum, the sections were incubated with anti-doublecortin (DCX) antibody, diluted 1:1000 (rabbit polyclonal antibody; Abcam, Cambridge, UK) and anti-vascular endothelial growth factor (VEGF) antibody, diluted 1:100 (mouse monoclonal antibody; Abcam, Cambridge, UK) overnight at 4° C. After rinsing, Alexa Fluor® goat anti-rabbit, diluted 1:1000 and Alexa Fluor® goat anti-mouse, diluted 1:1000 (Invitrogen Inc., Ghent, Belgium) were added and sections were incubated 1 h at room temperature. Mounting medium containing 4′,6-diamidino-2-phenylindole (DAPI) for fluorescent studies was used (Vector Laboratories). Samples were analyzed with the aid of a microscope (Olympus Vanox AHBT3, Olympus), and the ImageJ software (NIH). The percentage of positively stained cells was quantified as a sum of positively stained either DCX or VEGF cells divided by the total number of DAPI positive cells expressed in percentage.
(§2) Newborn rat pups were assigned to one of the following 6 groups from postnatal day 4: Sham group (n=24), Vehicle group (n=14), E4 1 mg/kg/per day group (n=11), E4 5 mg/kg/per day group (n=14), E4 10 mg/kg/per day group (n=14), or E4 50 mg/kg/per day group (n=19). From postnatal day 4, rat pups were intraperitoneally injected either vehicle (Vehicle group) or E4 (1, 5, 10, or 50 mg/kg/per day in accordance to the E4 group assignment) or neither vehicle nor E4 (Sham group). At day 7, 30 minutes after last injection, animals were anesthetized with isoflurane (induction, 3.0%; maintenance, 1.5%), and the rat pups from Vehicle and E4 groups passed through surgery encompassing left common carotid artery double ligation and cut. After the procedure, the pups were returned to their dams and were allowed to recover for 1 hour. The pups were then placed in the humidified hypoxic in vivo cabinet (CoyLab, Grass Lake, Mich., USA). Hypoxia was produced by the inhalation of 11%-8% of oxygen balanced by nitrogen at decreased concentration of oxygen for 20 minutes, followed by inhalation of 8% oxygen and 92% nitrogen at constant concentration for 35 minutes. All the manipulations were performed at 37° C. The Sham group went through similar procedures without left common carotid artery ligation followed by hypoxia nor injection. Rat pups recovered with their dams and reared normally until being sacrificed at postnatal day 14.

Series [2] can be described thus: Ex.3 neuroprotective HIE rat model: rectal temperature. Conditions: E4 1, 5, 10, 50 mg/kg/day ip PND4-7 before HI; 0, 2, 4 h after hypoxia. As for the experimental part: The rectal temperature of the rat pups was measured with a multipurpose thermometer (BAT-10R, Physitemp Instruments Inc., Clifton, N.J., US) along with a rectal probe (RET-4, BioMedical Instruments, Zollnitz, Germany) at 0, 2, and 4 hours after exposure to hypoxic insult. To keep the variability of the temperature low, measurements of rectal temperature were made in a 25° C. room 15 min after removal of the pups from the nest (except the 1st post-hypoxic measurement which was done immediately). It has been shown that the rectal temperature corresponds very well to the brain core temperature (Thoresen et al. 1996. Arch Dis Child Fetal Neonatal 74: F3-F9, Yager et al. 1993. Pediatr Res 34: 525-529).
Newborn rat pups were assigned to one of the following 6 groups from postnatal day 4: Sham group (n=24), Vehicle group (n=14), E4 1 mg/kg/per day group (n=11), E4 5 mg/kg/per day group (n=14), E4 10 mg/kg/per day group (n=14), or E4 50 mg/kg/per day group (n=19). From postnatal day 4, rat pups were intraperitoneally injected either vehicle (Vehicle group) or E4 (1, 5, 10, or 50 mg/kg/per day in accordance to the E4 group assignment) or neither vehicle nor E4 (Sham group). […]

Series [3] deals with glial fibrillary acidic protein (GFAP). The experiment in a line: Ex.8 neuroprotective HIE rat model: blood serum GFAP ELISA. As for the experimental part:
Newborn rat pups were assigned to one of the following 14 groups from postnatal day 4 (FIG. 23(A)): Sham group (n=12), Vehicle group (n=17), 5 mg/kg/day E4 (n=13), 10 mg/kg/day E4 (n=10), 5 mg/kg/day E4+1.6 mg/kg/day PROG (n=11), 10 mg/kg/day E4+1.6 mg/kg/day PROG (n=11), 5 mg/kg/day E4+16 mg/kg/day PROG (n=11), 10 mg/kg/day E4+16 mg/kg/day PROG (n=11), 5 mg/kg/day E4+136 ng//kg/day E2 (n=11), 10 mg/kg/day E4+136 ng/kg/day E2 (n=11), 5 mg/kg/day E4+1.6 mg/kg/day PROG+136 ng/kg/day (n=13) E2, 10 mg/kg/day E4+1.6 mg/kg/day PROG+136 ng/kg/day E2 (n=16), 5 mg/kg/day E4+16 mg/kg/day PROG+136 ng/kg/day E2 (n=11), 10 mg/kg/day E4+16 mg/kg/day PROG+136 ng/kg/day groups (n=13). Intraperitoneal injections of the pups from study groups were performed from postnatal day 4 to postnatal day 7 inclusively. At day 7, 30 minutes after last injection, animals were anesthetized with isoflurane (induction, 3.0%; maintenance, 1.5%), and the rat pups from vehicle and all the other groups, except the sham group, passed through surgery encompassing left common carotid artery double ligation and cut. After the procedure, the pups were returned to their dams and were allowed to recover for 1 hour. The pups were then placed in the humidified hypoxic in vivo cabinet (CoyLab, Grass Lake, Mich., USA). […]
(ELISA stands for enzyme-linked immunosorbent assay.)

Another series has as its system doublecortin (DCX). The experiment in a line: Ex.3 neuroprotective HIE rat model: doublecortin staining. On the procedure:
as §1, §2

The mark [4] stands for this setting: 10 mg/kg E4 ip PND4-7 before HI, CA1.
Where [5] appears, read: 10 mg/kg E4 ip PND4-7 before HI, DG.
[6] abbreviates: 10 mg/kg E4 ip PND4-7 before HI, cortex.

Regarding `C[C@]12CC[C@@H]3c4ccc(O)cc4CC[C@H]3[C@@H]1[C@@H](O)[C@@H](O)[C@@H]2O` [E4, 1,3,5(10)-estratrien-3,15α,16α,17β-tetrol], the “percentage of VEGF positively stained cells” value is listed as 34.1±6.855% in series [1] (1 mg/kg E4 ip PND4-7 before HI, CA2/CA3); 43.5±2.083% in series [1] (1 mg/kg E4 ip PND4-7 before HI, DG); 46.0±4.361% in series [1] (5 mg/kg E4 ip PND4-7 before HI, DG); 37.4±7.645% in series [1] (setting [4]); 47.0±5.362% in series [1] (setting [5]); 46.2±7.646% in series [1] (setting [6]). Also, in series [1] (50 mg/kg E4 ip PND4-7 before HI, DG), the “percentage of VEGF positively stained cells” value came to 46.0±4.465%. For the same compound, the rectal temperature result in series [2] is on record as “did not affect the body temperature”. In addition, the “concentration of GFAP in blood serum” value in series [3] (5 mg/kg/day, PND14) turned out to be 6220.49 ± 1763.17 pg/mL; in series [3] (10 mg/kg/day E4, PND14), 12413.45 ± 2243.05 pg·mL. Moreover, the “percentage of DCX positively stained cells” value in the series on doublecortin (DCX) (5 mg/kg E4 ip PND4-7 before HI, CA1) is given as 35.2±3.309%; in the series on doublecortin (DCX) (5 mg/kg E4 ip PND4-7 before HI, CA2/CA3), 30.3±3.7%; in the series with doublecortin (DCX) (setting [4]), 34.1±6.664%; with doublecortin (DCX) (setting [5]) it was 55.8±5.658%; in the series with doublecortin (DCX) (setting [6]), 52.1±7.762%.
